# Test results reported in US4035486A, “Medicament” (Centre d'Etudes Experimentales et Clinques de Physio …, priority 1974, dated 1977).
# What was measured:
# [1] = test system: sections of the cerebral cortex of a rat stimulated by KCl; experiment: Action in vitro on consumption of oxygen, accumulation of lactic acid and consumption of glucose in rat cerebral cortex sections stimulated by KCl (Warburg technique, enzymatic determination); type: cell-based; conditions: for Accumulation of lactic acid / Consumption of glucose / Consumption of oxygen: rat cerebral cortex sections stimulated by KCl, 1 hour at 37°, ACh 2.7.10^-10 M, insulin 66.10^-4 U/I
# Source text: 1. The investigation, on sections of a rat's brain which have been stimulated by KCl, of the variations in the consumption of oxygen, the production of lactic acid and the consumption of glucose, by WARBURG's conventional technique, after which these sections are subjected to the action of guanosine, ACh or insulin or guanosine in association with ACh or insulin. I. Action in vitro of guanosine, alone or in association with acetylcholine or insulin, on the consumption of oxygen, the accumulation of lactic acid and the consumption of glucose in sections of the cerebral cortex of a rat which have been stimulated by KCl. The animals which are used are male Wistar Vag rats with an average weight of 225/250 grammes, and they have been subjected to standard laboratory regime. The sections of tissue, which weigh between 15 and 20 mg, were taken from the cerebral cortex of the rat and allowed to incubate for 1 hour at 37° after being placed in a flask containing the Krebs-Ringer phosphate buffer having a KCl concentration of 10 percent. The substrate comprises 15 μ moles of glucose. The guanosine, […], is added to the flask simultaneously with the glucose and the buffer, whereas the acetylcholine 2.7.10^^-10 M and the insulin (Endopancrine) 66.10^-^4 μ/liter are placed in the lateral paunch and put into contact with the section of tissue at a time 0. The total volume of the mixture is 3 mls. The consumption of oxygen is measured according to Warburg's conventional method after a 1-hour period of incubation at 37°. It is expressed in μ moles of oxygen per hour and per gramme of tissue. The lactic acid and glucose are determined in the deproteinised incubation medium by an enzymatic method. The results are expressed in μ moles/h/g of tissue.
# [2] = test system: glycogen of the mouse brain; experiment: Cerebral glycogen in a mouse after injection of guanosine, insulin or both; type: in vivo; conditions: for glycogen of the mouse brain: 30 minutes before killing; for level of cerebral glycogen compared with the controls (in words): mouse, guanosine 100 mg/kg or 200 mg/kg, insulin 0.5 I.U./20 g, or insulin with guanosine 200 mg/kg
# Method: 2. The investigation of the content of glycogen in the brain of a mouse under the action of quanosine or insulin or these two agents in association. The animals which are used are male mice with an average weight of 20-25 g. Five groups of animals were studied which had received respectively: 1st group: a isotonic salt solution by intraperitoneal injection. 2nd group: a dose of 100 mg/kg of guanosine by intraperitoneal injection. 3rd group: a dose of 200 mg/kg of guanosine by intraperitoneal injection. 4th group: a dose of 0.5 μI/20 g per mouse of insulin by subcutaneous injection. For these four groups the injection was made 30 minutes before the animals were killed. 5th group: an intraperitoneal injection of guanosine at a dose of 200 mg/kg 30 minutes before a sub-cutaneous injection of insulin at a dose of 0.5 μI/20 g per mouse. The animal is killed 30 minutes after the second injection by being totally immersed in liquid nitrogen. The brains are removed whilst they are still deep-frozen. The isolated glycogen is hydrolyzed by the enzyme amylo-α-1,4 -α-1,6 glucosidase which releases the glucose by hydrolysis of the α-(1 → 6) and α-(→ 4) bonds. The glucose is then converted, in a single stage, to 6-phosphogluconate by the enzymes : hexokinase and glucose-6-phosphate dehydrogenase. The formation of the nicotinamide adenine dinucleotide phosphate is then measured florometrically (NAHORSKI and ROGERS, Analyt. Biochem. 1972, 49, 492-497).
# glycemia = experiment: Action of guanosine upon glycemia in the rabbit after intravenous injection; type: in vivo; conditions: insulin 0.5 I.U. per kg alone or with guanosine 100 mg per kg, followed to 240 min
# Method: 3. The study of the variations in glycemia in a rabbit after an injection of either insulin or insulin in association with guanosine.
# The animals which are used are male rabbits with a weight of 2.200 kg to 2.500 kg.
# Four groups of animals were studied which had received by intravenous injection, respectively, in a volume of 10 ml:
# 1st group: an isotonic solution of sodium chloride.
# 2nd group: guanosine at the rate of 100 mg per kg of rabbit.
# 3rd group: insulin at the rate of 0.5 I.U. per kg of rabbit.
# 4th group: guanosine at the rate of 100 mg per kg of rabbit and insulin at the rate of 0.5 I.U. per kg of rabbit.
# A catheter is inserted into the femoral artery, its distal end being joined to the skin in the caudal region, such that the blood may be removed without harming the rabbit.
# The drugs were injected via a vein in the ear. The guanosine was dissolved in an isotonic sodium chloride solution to which 1.5% NaOH was added until the guanosine has been dissolved. The pH of the final solution was 9.
# After the inspection the rabbits were given 30 minutes rest.
# Arterial blood was removed on six occasions at the times t = 0 min; t = 15 min; t = 30 min; t = 60 min; t = 120 min; t = 240 min.
# The glycemia values were determined by the enzymatic method of BOEHRINGER.
Compound,"increase in the consumption of oxygen ([1]; acetylcholine 2.7.10^-10 M, alone or with guanosine, rat cerebral cortex sections)",Accumulation of lactic acid ([1]; guanosine 1.66.10^-4 M),Consumption of glucose ([1]; guanosine 1.66.10^-4 M),Consumption of oxygen ([1]; guanosine 1.66.10^-4 M),"effect upon the accumulation of lactic acid (in words) ([1]; rat cerebral cortex sections, guanosine 1.66.10^-4 M)","effect upon the consumption of glucose (in words) ([1]; rat cerebral cortex sections, guanosine 1.66.10^-4 M, acetylcholine 2.7.10^-10 M)","effect upon the consumption of oxygen (in words) ([1]; rat cerebral cortex sections, guanosine 1.66.10^-4 M, acetylcholine 2.7.10^-10 M, insulin 66.10^-4 μ/liter)",glycogen of the mouse brain ([2]; guanosine 100 mg/kg intraperitoneal),glycogen of the mouse brain ([2]; guanosine 200 mg/kg intraperitoneal),level of cerebral glycogen compared with the controls (in words) [2],return of the glycemia to its original level (in words) (glycemia),"increase in the consumption of glucose ([1]; insulin 66.10^-4 μ/liter, alone or with guanosine, rat cerebral cortex sections)",glycogen of the mouse brain ([2]; insulin 0.5 I.U./20 g mouse subcutaneous)
"CC(=O)OCC[N+](C)(C)C [ACh, acetylcholine, reference compound]",25%,98.8 ± 3.7 µmol/h/g,146 ± 13.9 µmol/h/g,134 ± 7.2 µmol/h/g,,,,,,,,,
"Nc1nc2c(ncn2[C@@H]2O[C@H](CO)[C@@H](O)[C@H]2O)c(=O)[nH]1 [Guanosine, guanosine]",,88.2 ± 5.4 µmol/h/g,99.3 ± 9.1 µmol/h/g,93 ± 6 µmol/h/g,has no effect,has no effect,has no effect,151 ± 7 μ g of glucose equivalents per,159 ± 8 μ g of glucose equivalents per,do not show any significant differences,,,
insulin,,84.6 ± 5 µmol/h/g,168 ± 17 µmol/h/g,91.6 ± 5.3 µmol/h/g,,,,,,very much higher than that of the controls,quickly returns to its original level,50%,182 ± 10 μ g of glucose equivalents per
